Results on 8 compounds are retold here after ChEMBL document CHEMBL5230091, “Histone deacetylase inhibitor based prodrugs” (Eur J Med Chem, 2020).

Structures are written as SMILES. Converted amounts (≈) assume the structure as drawn.

For one data set, the system named is A549. Put plainly: Antiproliferative activity against human A549 cells assessed as cell growth inhibition measured after 72 hrs by SRB assay. The settings on record: A549, 72 h. Format: functional, cell-based.
Data set [1] concerns HCT-116. Put plainly: Antiproliferative activity against human HCT-116 cells assessed as cell growth inhibition measured after 72 hrs by SRB assay. Type of data set: functional, cell-based. The conditions noted are these: HCT-116, 72 h. For orientation: In SRB staining, fixed cells bind dye roughly in proportion to their protein.
Data set [2] is described as follows: Aqueous solubility of compound by HPLC method. Type of data set: physicochemical. The conditions noted are these: water (aqueous).
Data set [3] in a line: Cytotoxicity against human Astrocyte cells assessed as cell growth inhibition. Type of data set: toxicity, cell-based.
A further data set deals with U-251. Nature of the data set: Antiproliferative activity against human U-251MG cells assessed as cell growth inhibition. Format: functional, cell-based.
For another data set, the system named is SF-188. Nature of the data set: Antiproliferative activity against human SF-188 cells assessed as cell growth inhibition. Type of data set: functional, cell-based.
Data set [4] relates to HCT-116. Nature of the data set: Antitumor activity against human HCT-116 cells xenografted in athymic nude mouse assessed as tumor volume inhibition at 60 mg/kg per day, po. Type of data set: functional. On the technique in general: In xenograft studies the graft and the host belong to different species.
The test system of the next data set is NCI-H1975. Put plainly: Antitumor activity against human NCI-H1975 cells xenografted in athymic nude mouse assessed as tumor volume inhibition at 60 mg/kg per day, po. Type of data set: functional.
The subject of the next data set is SK-OV-3. Nature of the data set: Antitumor activity against human SK-OV-3 cells xenografted in athymic nude mouse assessed as tumor volume inhibition at 60 mg/kg per day, po. Format: functional.
The test system of another data set is MDA-MB-436. Put plainly: Antitumor activity against human MDA-MB-436 cells xenografted in athymic nude mouse assessed as tumor volume inhibition at 60 mg/kg per day, po. Type of data set: functional.
The subject of the next data set is MV4-11. Put plainly: Antitumor activity against human MV4-11 cells xenografted in athymic nude mouse assessed as tumor volume inhibition at 60 mg/kg per day, po. Format: functional.

Take `CCc1c2c(nc3ccc(O)cc13)-c1cc3c(c(=O)n1C2)COC(=O)[C@]3(O)CC` [7-ETHYL-10-HYDROXYCAMPTOTHECIN]: the concentration for half-maximal inhibition (IC50) (as a rule, the concentration that gives 50% inhibition) with A549 is 45.4 nM; with HCT-116 [1] it was 55.1 nM.
For the compound `CN(CCOC(=O)ONC(=O)CCCCCCC(=O)Nc1ccccc1)C(=O)OCc1ccc(O[C@@H]2O[C@H](C(=O)O)[C@@H](O)[C@H](O)[C@H]2O)c([N+](=O)[O-])c1`, the solubility (usually the dissolved amount per volume that the medium holds) in [2] is 40 mg/mL (≈ 54.3 mM).
Consider `CCCC(=O)OCOC(=O)CCCc1ccccc1`, for which the IC50 in data set [3] was 291000 nM; in the data set with U-251, 154000 nM; in the data set on SF-188, 76000 nM.
On to `CN(CCOC(=O)ONC(=O)/C=C/c1cccc(S(=O)(=O)Nc2ccccc2)c1)C(=O)OCc1ccc(O[C@@H]2O[C@H](C(=O)O)[C@@H](O)[C@H](O)[C@H]2O)c(N)c1`, for which, in data set [2], the solubility was 100 mg/mL (≈ 131 mM).
`CN(CCOC(=O)ONC(=O)CCCCCCC(=O)Nc1ccccc1)C(=O)OCc1ccc(O[C@@H]2O[C@H](C(=O)O)[C@@H](O)[C@H](O)[C@H]2O)c(N)c1` gave a solubility in data set [2] of 55 mg/mL (≈ 77.8 mM).
Same read-out and setting: then `CN(CCOC(=O)ONC(=O)/C=C/c1cccc(S(=O)(=O)Nc2ccccc2)c1)C(=O)OCc1ccc(O[C@@H]2O[C@H](C(=O)O)[C@@H](O)[C@H](O)[C@H]2O)c([N+](=O)[O-])c1`, with 80 mg/mL (≈ 101 mM).
Take `CCc1c2c(nc3ccc(O)cc13)-c1cc3c(c(=O)n1C2)COC(=O)[C@@]3(CC)OC(=O)CNC(=O)ONC(=O)CCCCCCC(=O)Nc1ccccc1`: the figures for the IC50 in the data set on A549 and with HCT-116 [1] were 87.3 nM and 113 nM, respectively.
`CC(=O)SCCCCC[C@H](NC(=O)[C@H]1CCC(=O)N1)C(=O)Nc1ccccc1`: the inhibition in vivo (in general, the change of the read-out against control, counted positive when it falls) at 60 mg/kg in the data set with HCT-116 [4] amounted to 77%; with NCI-H1975, 65%; in the data set with SK-OV-3, 59%; in the data set with MDA-MB-436, 35%; with MV4-11, 70%.
